# Data as given in patent US20110224208A1, “NOVEL INHIBITORS OF FLAVIVIRUS REPLICATION” (KATHOLIEKE UNIVERSITEIT LEUVEN, K.U. LEUVEN R&D, priority 2008, published 2011).
# Where two headings read alike, the source gives them in different places.
# Tests used:
# [1] = system: HCV replicon I389luc-ubi-neo/NS3-3'/5.1; test: Anti-HCV replicon assay (luciferase activity) in Huh-5-2 cells; type: cell-based, Hepatitis C virus; settings: Hepatitis C virus, concentration required to inhibit luciferase activity in the replicon system by 50%
# Experimental: (§1) Cells were seeded at a density of 7000 cells per well in 96 well View Plate™ (Packard) in medium containing the same components as described above, except for G418. Cells were allowed to adhere and proliferate for 24 hr. At that time, culture medium was removed and serial dilutions of the test compounds were added in culture medium lacking G418. Interferon alfa 2a (500 IU) was included as a positive control. Plates were further incubated at 37° C. and 5% CO2 for 72 hours. Replication of the HCV replicon in Huh-5 cells results in luciferase activity in the cells. Luciferase activity is measured by adding 50 μl of 1×Glo-lysis buffer (Promega) for 15 minutes followed by 50 ul of the Steady-Glo Luciferase assay reagent (Promega). Luciferase activity is measured with a luminometer and the signal in each individual well is expressed as a percentage of the untreated cultures. […] Instead the density of the culture is measured by means of the MTS method (Promega).
# [2] = Proliferation of exponentially growing Huh-5-2 cells (MTS method); settings: human
# Experimental: as §1
# [3] = CC50, concentration required to inhibit the proliferation of exponentially growing Huh-5-2 cells by 50%, Table 2
SMILES,"IC50 ([1]; Huh-5-2, 72 h)","CC50 at 72 h [2, 3]","IC50 ([1]; 72 hours, read-out: IC50)",CC50 at 72 h ([2]; Huh-5-2 cells (Huh-5 cell line with persistent HCV replicon))
"COCCN1C(=O)c2ccccc2C(C(=O)Nc2ccc(Cn3ccnc3)cc2)C1c1cccs1 (stereo not shown) [C215, N-(4-((1H-imidazol-1-yl)methyl)phenyl)-2-(2-methoxyethyl)-1-oxo-3-(thiophen-2-yl)-1,2,3,4-tetrahydroisoquinoline-4-carboxamide]",1.04 µg/mL,52.9 µg/mL,–,–
"COCCN1C(=O)c2ccccc2C(C(=O)n2c(=O)oc3ccc(N)cc32)C1c1cccs1 (stereo not shown) [C207, 5-amino-3-(−2-(2-methoxyethyl)-1-oxo-3-(thiophen-2-yl)-1,2,3,4-tetrahydroisoquinoline-4-carbonyl)benzo[d]oxazol-2(3H)-one]",27.4 µg/mL,72.3 µg/mL,–,–
"COCCN1C(=O)c2ccccc2C(C(=O)Nc2cccc(OC)c2)C1c1ccc[nH]1 (stereo not shown) [C29, 2-(2-Methoxyethyl)-N-(3-methoxyphenyl)-1-oxo-3-(1H-pyrrol-2-yl)-1,2,3,4-tetrahydroisoquinoline-4-carboxamide]",14.8 µg/mL,54.5 µg/mL,–,–
"COCCN1C(=O)c2ccccc2C(C(=O)Nc2cc(-c3ccccc3)nn2C)C1c1cccs1 (stereo not shown) [C208, 2-(2-methoxyethyl)-N-(1-methyl-3-phenyl-1H-pyrazol-5-yl)-1-oxo-3-(thiophen-2-yl)-1,2,3,4-tetrahydroisoquinoline-4-carboxamide]",0.39 µg/mL,7.94 µg/mL,–,–
"C#CC1C(C(=O)Nc2cccc(OC)c2)c2ccccc2C(=O)N1CCOC (stereo not shown) [C83, 3-ethynyl-2-(2-methoxyethyl)-N-(3-methoxyphenyl)-1-oxo-1,2,3,4-tetrahydroisoquinoline-4-carboxamide]",0.4 µg/mL,70 µg/mL,–,–
"COCCN1C(=O)c2ccccc2C(C(=O)Nc2cccc(OC)c2)C1c1cccc(F)c1 (stereo not shown) [C8, 3-(3-Fluorophenyl)-2-(2-methoxyethyl)-N-(3-methoxyphenyl)-1-oxo-1,2,3,4-tetrahydroisoquinoline-4-carboxamide]",21.8 µg/mL,54.5 µg/mL,–,–
"COCCN1C(=O)c2ccccc2C(C(=O)Nc2cccc(OC)c2)C1c1csc(C)n1 (stereo not shown) [C98, 2-(2-methoxyethyl)-N-(3-methoxyphenyl)-3-(2-methylthiazol-4-yl)-1-oxo-1,2,3,4-tetrahydroisoquinoline-4-carboxamide]",50.3 µg/mL,80.9 µg/mL,–,–
"COc1cccc(NC(=O)C2c3ccccc3C(=O)N(Cc3ccccc3)C2c2cccs2)c1 (stereo not shown) [C37, 2-Benzyl-N-(3-methoxyphenyl)-1-oxo-3-(thiophen-2-yl)-1,2,3,4-tetrahydroisoquinoline-4-carboxamide]",1.5 µg/mL,92.7 µg/mL,–,–
"COCCN1C(=O)c2ccccc2C(C(=O)Nc2onc(C)c2C#N)C1c1cccs1 (stereo not shown) [C155, N-(4-cyano-3-methylisoxazol-5-yl)-2-(2-methoxyethyl)-1-oxo-3-(thiophen-2-yl)-1,2,3,4-tetrahydroisoquinoline-4-carboxamide]",5.65 µg/mL,76.4 µg/mL,–,–
"COCCN1C(=O)c2ccccc2C(C(=O)Nc2ccc3c(c2)OCCO3)C1c1cccs1 (stereo not shown) [C117, N-(2,3-dihydrobenzo[b][1,4]dioxin-6-yl)-2-(2-methoxyethyl)-1-oxo-3-(thiophen-2-yl)-1,2,3,4-tetrahydroisoquinoline-4-carboxamide]",0.36 µg/mL,81.9 µg/mL,–,–
"COCCN1C(=O)c2ccccc2C(C(=O)Nc2nc3ccc(OC)cc3s2)C1c1ccc(F)cc1 (stereo not shown) [C273, 3-(4-fluorophenyl)-N-(6-methoxybenzo[d]thiazol-2-yl)-2-(2-methoxyethyl)-1-oxo-1,2,3,4-tetrahydroisoquinoline-4-carboxamide]",–,–,1.4 µg/mL,14.9 µg/mL
"COCCN1C(=O)c2ccccc2C(C(=O)Nc2ccc(N3CCCCC3)cc2)C1c1cccs1 (stereo not shown) [C107, 2-(2-methoxyethyl)-1-oxo-N-(4-(piperidin-1-yl)phenyl)-3-(thiophen-2-yl)-1,2,3,4-tetrahydroisoquinoline-4-carboxamide]",0.12 µg/mL,23.5 µg/mL,–,–
"COCCN1C(=O)c2ccccc2C(C(=O)Nc2ccc(C)cc2)C1c1cccs1 (stereo not shown) [C86, 2-(2-methoxyethyl)-1-oxo-3-(thiophen-2-yl)-N-p-tolyl-1,2,3,4-tetrahydroisoquinoline-4-carboxamide]",0.25 µg/mL,75 µg/mL,–,–
"CCc1nnc(NC(=O)C2c3ccccc3C(=O)N(CCOC)C2c2cccs2)o1 (stereo not shown) [C125, N-(5-ethyl-1,3,4-oxadiazol-2-yl)-2-(2-methoxyethyl)-1-oxo-3-(thiophen-2-yl)-1,2,3,4-tetrahydroisoquinoline-4-carboxamide]",7.3 µg/mL,53.6 µg/mL,–,–
"COCCN1C(=O)c2ccccc2C(C(=O)Nc2ccc3c(c2)COC3)C1c1cccs1 (stereo not shown) [C190, N-(1,3-dihydroisobenzofuran-5-yl)-2-(2-methoxyethyl)-1-oxo-3-(thiophen-2-yl)-1,2,3,4-tetrahydroisoquinoline-4-carboxamide]",0.14 µg/mL,75.9 µg/mL,–,–
"COCCN1C(=O)c2ccccc2C(C(=O)Nc2cccc(OC)c2)C1c1ccc(F)cc1 (stereo not shown) [C9, 3-(4-Fluorophenyl)-2-(2-methoxyethyl)-N-(3-methoxyphenyl)-1-oxo-1,2,3,4-tetrahydroisoquinoline-4-carboxamide]",13.4 µg/mL,50.7 µg/mL,–,–
"COCCN1C(=O)c2ccccc2C(C(=O)Nc2nc3ccc(F)cc3s2)C1c1cccs1 (stereo not shown) [C199, N-(6-fluorobenzo[d]thiazol-2-yl)-2-(2-methoxyethyl)-1-oxo-3-(thiophen-2-yl)-1,2,3,4-tetrahydroisoquinoline-4-carboxamide]",0.12 µg/mL,5.97 µg/mL,–,–
"COCCN1C(=O)c2ccccc2C(C(=O)Nc2ccc3c(c2)CC(=O)N3C)C1c1cccs1 (stereo not shown) [C206, 2-(2-methoxyethyl)-N-(1-methyl-2-oxoindolin-5-yl)-1-oxo-3-(thiophen-2-yl)-1,2,3,4-tetrahydroisoquinoline-4-carboxamide]",3.72 µg/mL,52.3 µg/mL,–,–
"COCCN1C(=O)c2ccccc2C(C(=O)Nc2ccc(Cn3cccn3)cc2)C1c1cccs1 (stereo not shown) [C174, N-(4-((1H-pyrazol-1-yl)methyl)phenyl)-2-(2-methoxyethyl)-1-oxo-3-(thiophen-2-yl)-1,2,3,4-tetrahydroisoquinoline-4-carboxamide]",0.15 µg/mL,43 µg/mL,–,–
"COc1cccc(NC(=O)C2c3ccccc3C(=O)N(C3CCCCC3)C2c2cccs2)c1 (stereo not shown) [C25, 2-Cyclohexyl-N-(3-methoxyphenyl)-1-oxo-3-(thiophen-2-yl)-1,2,3,4-tetrahydroisoquinoline-4-carboxamide]",0.98 µg/mL,5.28 µg/mL,–,–
"COCCN1C(=O)c2ccccc2C(C(=O)Nc2ccc(C(=O)NCc3ccccc3)cc2)C1c1cccs1 (stereo not shown) [C137, N-(4-(benzylcarbamoyl)phenyl)-2-(2-methoxyethyl)-1-oxo-3-(thiophen-2-yl)-1,2,3,4-tetrahydroisoquinoline-4-carboxamide]",0.032 µg/mL,81.1 µg/mL,–,–
"COCCN1C(=O)c2ccccc2C(C(=O)Nc2cnccn2)C1c1cccs1 (stereo not shown) [C163, 2-(2-methoxyethyl)-1-oxo-N-(pyrazin-2-yl)-3-(thiophen-2-yl)-1,2,3,4-tetrahydroisoquinoline-4-carboxamide]",5.23 µg/mL,81 µg/mL,–,–
"COCCN1C(=O)c2ccccc2C(C(=O)Nc2cccc(OC)c2)C1c1cc(C)on1 (stereo not shown) [C103, 2-(2-methoxyethyl)-N-(3-methoxyphenyl)-3-(5-methylisoxazol-3-yl)-1-oxo-1,2,3,4-tetrahydroisoquinoline-4-carboxamide]",40.4 µg/mL,75.2 µg/mL,–,–
"COCCN1C(=O)c2ccccc2C(C(=O)Nc2cccc(OC)c2)C1CSC (stereo not shown) [C82, 2-(2-methoxyethyl)-N-(3-methoxyphenyl)-3-(methylthiomethyl)-1-oxo-1,2,3,4-tetrahydroisoquinoline-4-carboxamide]",12 µg/mL,72 µg/mL,–,–
"COCCN1C(=O)c2ccccc2C(C(=O)Nc2ccc(C)c(NS(C)(=O)=O)c2)C1c1cccs1 (stereo not shown) [C213, 2-(2-methoxyethyl)-N-(4-methyl-3-(methylsulfonamido)phenyl)-1-oxo-3-(thiophen-2-yl)-1,2,3,4-tetrahydroisoquinoline-4-carboxamide]",0.036 µg/mL,> 100 µg/mL,–,–
"COCCN1C(=O)c2ccccc2C(C(=O)Nc2cccc(OC)c2)C1c1ccco1 (stereo not shown) [C6, 3-(furan-2-yl)-2-(2-methoxyethyl)-N-(3-methoxyphenyl)-1-oxo-1,2,3,4-tetrahydroisoquinoline-4-carboxamide]",6.3 µg/mL,69.6 µg/mL,–,–
"COCCN1C(=O)c2ccccc2C(C(=O)Nc2cc(-c3ccco3)[nH]n2)C1c1cccs1 (stereo not shown) [C183, N-(5-(furan-2-yl)-1H-pyrazol-3-yl)-2-(2-methoxyethyl)-1-oxo-3-(thiophen-2-yl)-1,2,3,4-tetrahydroisoquinoline-4-carboxamide]",50.2 µg/mL,77 µg/mL,–,–
"COCCN1C(=O)c2ccccc2C(C(=O)Nc2ccccc2)C1c1cccs1 (stereo not shown) [C18, 2-(2-Methoxyethyl)-1-oxo-N-phenyl-3-(thiophen-2-yl)-1,2,3,4-tetrahydroisoquinoline-4-carboxamide]",2.65 µg/mL,78.2 µg/mL,–,–
"COCCN1C(=O)c2ccccc2C(C(=O)Nc2cccc(OC)c2)C1c1sccc1Cl (stereo not shown) [C17, 3-(3-Chlorothiophen-2-yl)-2-(2-methoxyethyl)-N-(3-methoxyphenyl)-1-oxo-1,2,3,4-tetrahydroisoquinoline-4-carboxamide]",3.8 µg/mL,50.4 µg/mL,–,–
